Test results from paper PMC6149898, “GPCR Modulation of Thieno[2,3-b]pyridine Anti-Proliferative Agents” (Molecules : A Journal of Synthetic Chemistry and Natural …, 2017).

Tests used:
VIPR1 = VIPR1 (Homo sapiens, UniProt P32241); assay: gpcrMAX PathHunter beta-arrestin
HTR5A = HTR5A (Homo sapiens, UniProt P47898); assay: gpcrMAX PathHunter beta-arrestin
BDKRB1 = BDKRB1 (Homo sapiens, UniProt P46663); assay: gpcrMAX PathHunter beta-arrestin
MC5R = MC5R (Homo sapiens, UniProt P33032); assay: gpcrMAX PathHunter beta-arrestin
DRD3 = DRD3 (Homo sapiens, UniProt P35462); assay: gpcrMAX PathHunter beta-arrestin
TACR2 = TACR2 (Homo sapiens, UniProt P21452); assay: gpcrMAX PathHunter beta-arrestin
CXCR6 = CXCR6 (Homo sapiens, UniProt O00574); assay: gpcrMAX PathHunter beta-arrestin
ME:LOX IMVI = tested on: ME:LOX IMVI; parameters: method as in earlier work; settings: NCI-60 panel; ref [4],[5],[6],[7]; cited from earlier work
LE:RPMI-8226 = tested on: LE:RPMI-8226; parameters: method as in earlier work; settings: NCI-60 panel; ref [4],[5],[6],[7]; cited from earlier work
RE:RXF 393 = tested on: RE:RXF 393; parameters: method as in earlier work; settings: NCI-60 panel; ref [4],[5],[6],[7]; cited from earlier work
CMKLR1 = CMKLR1 (Homo sapiens, UniProt Q99788); assay: gpcrMAX PathHunter beta-arrestin
LE:SR = tested on: LE:SR; parameters: method as in earlier work; settings: NCI-60 panel; ref [4],[5],[6],[7]; cited from earlier work
HTR2A = HTR2A (Homo sapiens, UniProt P28223); assay: gpcrMAX PathHunter beta-arrestin
EDNRB = EDNRB (Homo sapiens, UniProt P24530); assay: gpcrMAX PathHunter beta-arrestin
GALR1 = GALR1 (Homo sapiens, UniProt P47211); assay: gpcrMAX PathHunter beta-arrestin
CALCR-RAMP2 = CALCR-RAMP2 (Homo sapiens, UniProt O60895+P30988); assay: gpcrMAX PathHunter beta-arrestin
CNS:SNB-75 = tested on: CNS:SNB-75; parameters: method as in earlier work; settings: NCI-60 panel; ref [4],[5],[6],[7]; cited from earlier work
MRGPRX1 = MRGPRX1 (Homo sapiens, UniProt Q96LB2); assay: gpcrMAX PathHunter beta-arrestin
F2RL1 = F2RL1 (Homo sapiens, UniProt P55085); assay: gpcrMAX PathHunter beta-arrestin
AGTRL1 = AGTRL1 (Homo sapiens, UniProt P35414); assay: gpcrMAX PathHunter beta-arrestin
TSHR(L) = TSHR(L) (Homo sapiens, UniProt P16473); assay: gpcrMAX PathHunter beta-arrestin
HRH2 = HRH2 (Homo sapiens, UniProt P25021); assay: gpcrMAX PathHunter beta-arrestin
LC:NCI-H23 = tested on: LC:NCI-H23; parameters: method as in earlier work; settings: NCI-60 panel; ref [4],[5],[6],[7]; cited from earlier work
CHRM2 = CHRM2 (Homo sapiens, UniProt P08172); assay: gpcrMAX PathHunter beta-arrestin
EDG4 = EDG4 (Homo sapiens, UniProt Q9HBW0); assay: gpcrMAX PathHunter beta-arrestin
GHSR = GHSR (Homo sapiens, UniProt Q92847); assay: gpcrMAX PathHunter beta-arrestin
CCR1 = CCR1 (Homo sapiens, UniProt P32246); assay: gpcrMAX PathHunter beta-arrestin
FPRL1 = FPRL1 (Homo sapiens, UniProt P25090); assay: gpcrMAX PathHunter beta-arrestin
DRD1 = DRD1 (Homo sapiens, UniProt P21728); assay: gpcrMAX PathHunter beta-arrestin
GPR119 = GPR119 (Homo sapiens, UniProt Q8TDV5); assay: gpcrMAX PathHunter beta-arrestin
PR:DU-145 = tested on: PR:DU-145; parameters: method as in earlier work; settings: NCI-60 panel; ref [4],[5],[6],[7]; cited from earlier work
OXTR = OXTR (Homo sapiens, UniProt P30559); assay: gpcrMAX PathHunter beta-arrestin
PTHR1 = PTHR1 (Homo sapiens, UniProt Q03431); assay: gpcrMAX PathHunter beta-arrestin
GPR120 = GPR120 (Homo sapiens, UniProt Q5NUL3); assay: gpcrMAX PathHunter beta-arrestin
AGTR1 = AGTR1 (Homo sapiens, UniProt P30556); assay: gpcrMAX PathHunter beta-arrestin
CCR2 = CCR2 (Homo sapiens, UniProt P41597); assay: gpcrMAX PathHunter beta-arrestin
ADRB2 = ADRB2 (Homo sapiens, UniProt P07550); assay: gpcrMAX PathHunter beta-arrestin
CRHR1 = CRHR1 (Homo sapiens, UniProt P34998); assay: gpcrMAX PathHunter beta-arrestin
OV:IGROV1 = tested on: OV:IGROV1; parameters: method as in earlier work; settings: NCI-60 panel; ref [4],[5],[6],[7]; cited from earlier work
HCRTR1 = HCRTR1 (Homo sapiens, UniProt O43613); assay: gpcrMAX PathHunter beta-arrestin
Chain of HCRTR1 (O43613 whole entry): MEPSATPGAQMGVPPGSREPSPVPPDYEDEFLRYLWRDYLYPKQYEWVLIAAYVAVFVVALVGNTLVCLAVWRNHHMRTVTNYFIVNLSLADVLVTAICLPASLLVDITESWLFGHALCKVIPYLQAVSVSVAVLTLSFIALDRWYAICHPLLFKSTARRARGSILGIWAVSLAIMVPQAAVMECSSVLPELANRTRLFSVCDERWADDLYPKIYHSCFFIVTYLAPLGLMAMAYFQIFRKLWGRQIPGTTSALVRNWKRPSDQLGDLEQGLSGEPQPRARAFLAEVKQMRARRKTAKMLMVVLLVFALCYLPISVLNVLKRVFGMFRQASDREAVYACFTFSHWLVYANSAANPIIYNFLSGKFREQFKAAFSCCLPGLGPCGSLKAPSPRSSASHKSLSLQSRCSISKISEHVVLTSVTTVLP

Chain of PTHR1 (Q03431 27-593): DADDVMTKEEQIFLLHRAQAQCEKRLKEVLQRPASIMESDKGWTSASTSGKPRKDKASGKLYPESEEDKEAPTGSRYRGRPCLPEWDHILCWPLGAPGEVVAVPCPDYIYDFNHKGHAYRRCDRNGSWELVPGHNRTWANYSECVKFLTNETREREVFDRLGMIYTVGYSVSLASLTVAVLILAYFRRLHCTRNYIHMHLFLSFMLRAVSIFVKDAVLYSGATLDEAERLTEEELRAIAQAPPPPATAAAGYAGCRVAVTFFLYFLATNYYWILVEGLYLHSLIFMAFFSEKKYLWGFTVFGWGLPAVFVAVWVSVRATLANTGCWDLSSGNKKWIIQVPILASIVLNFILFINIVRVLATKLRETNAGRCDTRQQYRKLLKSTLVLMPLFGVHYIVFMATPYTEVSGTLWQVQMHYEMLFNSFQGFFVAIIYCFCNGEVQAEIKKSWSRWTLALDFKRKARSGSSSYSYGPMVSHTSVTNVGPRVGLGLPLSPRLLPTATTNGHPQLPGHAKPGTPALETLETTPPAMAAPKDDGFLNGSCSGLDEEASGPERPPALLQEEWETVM
Chain of FPRL1 (P25090 whole entry): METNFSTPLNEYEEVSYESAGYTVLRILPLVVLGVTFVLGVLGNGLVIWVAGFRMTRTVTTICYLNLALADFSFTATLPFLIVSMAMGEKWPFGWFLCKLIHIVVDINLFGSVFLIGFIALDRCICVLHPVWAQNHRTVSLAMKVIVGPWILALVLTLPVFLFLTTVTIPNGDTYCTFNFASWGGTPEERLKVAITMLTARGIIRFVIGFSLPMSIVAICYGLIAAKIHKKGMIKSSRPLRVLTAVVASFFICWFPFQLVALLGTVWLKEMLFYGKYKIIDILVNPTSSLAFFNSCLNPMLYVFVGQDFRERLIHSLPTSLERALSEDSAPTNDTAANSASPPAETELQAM
Chain of DRD3 (P35462 whole entry): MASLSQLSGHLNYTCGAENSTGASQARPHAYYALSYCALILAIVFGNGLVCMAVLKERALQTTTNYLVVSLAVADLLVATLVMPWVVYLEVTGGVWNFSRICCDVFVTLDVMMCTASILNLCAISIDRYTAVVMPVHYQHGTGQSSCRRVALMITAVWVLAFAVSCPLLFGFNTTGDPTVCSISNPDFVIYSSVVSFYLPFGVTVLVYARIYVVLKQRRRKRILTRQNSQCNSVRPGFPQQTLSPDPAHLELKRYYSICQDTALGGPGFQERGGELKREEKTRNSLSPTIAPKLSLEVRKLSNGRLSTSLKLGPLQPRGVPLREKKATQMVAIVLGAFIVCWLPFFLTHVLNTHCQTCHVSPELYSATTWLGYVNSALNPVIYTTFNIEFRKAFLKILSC
Chain of TACR2 (P21452 whole entry): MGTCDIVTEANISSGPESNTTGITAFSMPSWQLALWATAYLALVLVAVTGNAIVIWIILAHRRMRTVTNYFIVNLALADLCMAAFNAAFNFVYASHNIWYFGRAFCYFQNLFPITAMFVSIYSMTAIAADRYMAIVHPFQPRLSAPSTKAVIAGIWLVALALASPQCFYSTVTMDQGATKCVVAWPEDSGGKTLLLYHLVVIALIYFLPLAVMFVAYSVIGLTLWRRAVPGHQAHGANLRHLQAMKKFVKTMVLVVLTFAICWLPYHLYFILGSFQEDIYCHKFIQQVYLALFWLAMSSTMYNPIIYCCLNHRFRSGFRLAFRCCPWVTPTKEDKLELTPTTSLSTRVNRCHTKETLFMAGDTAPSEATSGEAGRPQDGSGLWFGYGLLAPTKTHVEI
Chain of HTR2A (P28223 whole entry): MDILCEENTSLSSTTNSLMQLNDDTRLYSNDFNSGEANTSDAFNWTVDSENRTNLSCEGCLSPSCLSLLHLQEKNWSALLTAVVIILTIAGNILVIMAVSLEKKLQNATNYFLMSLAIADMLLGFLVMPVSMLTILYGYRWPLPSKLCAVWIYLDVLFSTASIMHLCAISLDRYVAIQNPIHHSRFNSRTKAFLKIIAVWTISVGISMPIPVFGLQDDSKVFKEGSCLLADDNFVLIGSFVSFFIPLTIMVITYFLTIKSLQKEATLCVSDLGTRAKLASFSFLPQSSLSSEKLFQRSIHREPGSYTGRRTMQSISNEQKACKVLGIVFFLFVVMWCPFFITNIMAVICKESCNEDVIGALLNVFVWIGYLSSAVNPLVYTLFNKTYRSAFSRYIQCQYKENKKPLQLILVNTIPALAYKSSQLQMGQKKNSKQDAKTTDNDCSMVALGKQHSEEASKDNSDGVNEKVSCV
Chain of CMKLR1 (Q99788 whole entry): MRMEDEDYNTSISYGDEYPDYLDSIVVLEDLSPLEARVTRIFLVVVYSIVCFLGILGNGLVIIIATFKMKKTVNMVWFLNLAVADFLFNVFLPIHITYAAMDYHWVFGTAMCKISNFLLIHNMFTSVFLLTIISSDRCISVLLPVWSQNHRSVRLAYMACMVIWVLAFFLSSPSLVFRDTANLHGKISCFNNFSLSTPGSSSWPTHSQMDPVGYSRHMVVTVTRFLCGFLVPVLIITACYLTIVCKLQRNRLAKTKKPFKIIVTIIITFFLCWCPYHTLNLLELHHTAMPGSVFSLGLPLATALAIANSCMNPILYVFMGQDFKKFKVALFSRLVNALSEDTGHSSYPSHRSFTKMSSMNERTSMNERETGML
Chain of CHRM2 (P08172 whole entry): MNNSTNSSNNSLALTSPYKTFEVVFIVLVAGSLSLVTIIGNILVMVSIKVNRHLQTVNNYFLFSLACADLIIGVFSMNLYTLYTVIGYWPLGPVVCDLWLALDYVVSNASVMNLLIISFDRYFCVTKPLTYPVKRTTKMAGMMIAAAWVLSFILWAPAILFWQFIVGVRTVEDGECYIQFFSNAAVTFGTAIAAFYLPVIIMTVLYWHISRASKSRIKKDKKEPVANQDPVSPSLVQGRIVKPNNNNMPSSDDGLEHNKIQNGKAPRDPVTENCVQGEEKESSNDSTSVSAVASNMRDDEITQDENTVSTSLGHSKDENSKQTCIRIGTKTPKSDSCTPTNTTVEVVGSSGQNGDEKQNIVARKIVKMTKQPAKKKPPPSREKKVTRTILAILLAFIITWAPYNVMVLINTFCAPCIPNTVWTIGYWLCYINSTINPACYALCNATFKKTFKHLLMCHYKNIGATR
Chain of OXTR (P30559 whole entry): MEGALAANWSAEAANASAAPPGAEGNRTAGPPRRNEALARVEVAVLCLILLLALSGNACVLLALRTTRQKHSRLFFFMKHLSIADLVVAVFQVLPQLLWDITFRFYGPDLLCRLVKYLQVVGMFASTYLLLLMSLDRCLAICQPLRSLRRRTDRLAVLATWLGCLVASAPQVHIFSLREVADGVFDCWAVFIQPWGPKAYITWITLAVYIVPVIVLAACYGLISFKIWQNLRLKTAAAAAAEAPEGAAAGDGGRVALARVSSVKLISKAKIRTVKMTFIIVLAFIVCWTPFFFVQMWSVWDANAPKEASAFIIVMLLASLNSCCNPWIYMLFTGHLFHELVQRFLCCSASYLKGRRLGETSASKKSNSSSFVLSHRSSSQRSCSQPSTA
Chain of ADRB2 (P07550 whole entry): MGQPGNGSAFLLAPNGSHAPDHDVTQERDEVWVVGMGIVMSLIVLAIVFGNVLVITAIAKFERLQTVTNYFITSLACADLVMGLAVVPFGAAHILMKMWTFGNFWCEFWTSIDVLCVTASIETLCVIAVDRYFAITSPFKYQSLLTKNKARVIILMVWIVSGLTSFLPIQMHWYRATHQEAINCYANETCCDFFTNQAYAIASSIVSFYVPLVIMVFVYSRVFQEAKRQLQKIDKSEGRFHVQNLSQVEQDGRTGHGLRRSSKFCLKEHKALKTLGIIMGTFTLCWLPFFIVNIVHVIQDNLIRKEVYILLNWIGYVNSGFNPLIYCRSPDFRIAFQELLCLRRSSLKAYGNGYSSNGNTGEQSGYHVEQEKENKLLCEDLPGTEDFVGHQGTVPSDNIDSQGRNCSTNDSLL
Chain of CCR1 (P32246 whole entry): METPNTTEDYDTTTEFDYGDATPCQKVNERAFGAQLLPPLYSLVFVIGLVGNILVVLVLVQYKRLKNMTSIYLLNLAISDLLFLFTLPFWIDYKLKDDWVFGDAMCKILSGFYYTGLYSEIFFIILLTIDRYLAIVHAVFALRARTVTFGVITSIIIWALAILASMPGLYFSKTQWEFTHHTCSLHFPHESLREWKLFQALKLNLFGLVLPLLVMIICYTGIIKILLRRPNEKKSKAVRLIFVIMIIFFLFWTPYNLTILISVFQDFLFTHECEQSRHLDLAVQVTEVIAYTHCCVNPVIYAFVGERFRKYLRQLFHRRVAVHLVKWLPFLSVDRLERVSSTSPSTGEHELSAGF
Chain of MRGPRX1 (Q96LB2 whole entry): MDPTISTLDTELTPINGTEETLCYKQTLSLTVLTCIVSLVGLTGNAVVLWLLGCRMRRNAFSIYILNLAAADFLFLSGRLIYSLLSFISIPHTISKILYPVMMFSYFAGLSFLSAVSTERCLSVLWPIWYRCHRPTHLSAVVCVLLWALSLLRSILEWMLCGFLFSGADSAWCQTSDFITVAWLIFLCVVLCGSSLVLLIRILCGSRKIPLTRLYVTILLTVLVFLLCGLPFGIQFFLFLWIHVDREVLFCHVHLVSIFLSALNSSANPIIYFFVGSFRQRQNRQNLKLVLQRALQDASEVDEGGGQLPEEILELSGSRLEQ

## Cc1c(Cl)cccc1NC(=O)c1sc2nc3c(cc2c1N)C(=O)CCC3 [Compound 1]
VIPR1
  inhibition at 10 µM: 7%
HTR5A
  inhibition at 10 µM: 2%
BDKRB1
  inhibition at 10 µM: -9%
MC5R
  inhibition at 10 µM: 20%
DRD3
  inhibition at 10 µM: 20%
TACR2
  inhibition at 10 µM: 14%
CXCR6
  inhibition at 10 µM: 5%
ME:LOX IMVI
  GI50: 80.3 nM
LE:RPMI-8226
  GI50: 256 nM
RE:RXF 393
  GI50: 41.8 nM
CMKLR1
  inhibition at 10 µM: 14%
LE:SR
  GI50: 74.2 nM
HTR2A
  inhibition at 10 µM: -1%
EDNRB
  inhibition at 10 µM: 0%
GALR1
  inhibition at 10 µM: 12%
CALCR-RAMP2
  inhibition at 10 µM: 0%
CNS:SNB-75
  GI50: 40.3 nM
MRGPRX1
  inhibition at 10 µM: 6%
F2RL1
  inhibition at 10 µM: 11%
AGTRL1
  inhibition at 10 µM: 5%
TSHR(L)
  inhibition at 10 µM: -24%
HRH2
  inhibition at 10 µM: 10%
LC:NCI-H23
  GI50: 169 nM
CHRM2
  inhibition at 10 µM: -14%
EDG4
  inhibition at 10 µM: 7%
GHSR
  inhibition at 10 µM: -2%
CCR1
  inhibition at 10 µM: -10%
FPRL1
  inhibition at 10 µM: 11%
DRD1
  inhibition at 10 µM: 12%
GPR119
  inhibition at 10 µM: 23%
PR:DU-145
  GI50: 152 nM
OXTR
  inhibition at 10 µM: 7%
PTHR1
  inhibition at 10 µM: 12%
GPR120
  inhibition at 10 µM: 4%
AGTR1
  inhibition at 10 µM: 7%
CCR2
  inhibition at 10 µM: -8%
ADRB2
  inhibition at 10 µM: -46%
CRHR1
  inhibition at 10 µM: 20%
OV:IGROV1
  GI50: 196 nM
HCRTR1
  inhibition at 10 µM: 13%
